{
  "source": "patent EP4714938A1",
  "about": "“HDAC1/2 SELECTIVE INHIBITOR AND USE THEREOF” (Wigen Biomedicine Technology (Shanghai) Co., Ltd., priority 2023, dated 2024)",
  "key": {"[1]": {"tested_on": "H3K 27 Acetyl lysine", "assay": "Intracellular H3K 27 acetyl lysine level by ELISA in HeLa cells", "format": "cell-based", "conditions": "24 h of treatment", "method": "HeLa cells were seeded into a 96-well plate at 20000 cells/well. After overnight adherence culture, the serially diluted compound was added. After 24 h of treatment, intracellular levels of acetyl lysine and H3K 27 acetyl lysine were quantified by ELISA. Table 8. Effect of compound of the present disclosure on levels of acetyl lysine and H3K 27 acetyl lysine"}, "[2]": {"molecular_target": "T1, HDAC11 (Homo sapiens, UniProt Q96DB2)", "T1 sequence (Q96DB2 1-347)": "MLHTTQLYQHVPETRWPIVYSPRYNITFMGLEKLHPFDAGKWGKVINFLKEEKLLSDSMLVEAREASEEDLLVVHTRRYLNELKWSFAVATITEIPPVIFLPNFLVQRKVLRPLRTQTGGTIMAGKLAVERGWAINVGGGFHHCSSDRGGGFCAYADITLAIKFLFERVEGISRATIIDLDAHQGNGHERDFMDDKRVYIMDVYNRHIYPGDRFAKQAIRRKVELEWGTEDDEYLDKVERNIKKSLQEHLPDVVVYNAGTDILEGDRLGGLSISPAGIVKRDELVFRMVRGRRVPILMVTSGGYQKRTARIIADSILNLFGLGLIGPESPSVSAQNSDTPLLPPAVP", "assay": "HDAC enzyme inhibitory activity, FRET method", "format": "biochemical", "conditions": "Table 6; read-out: IC50 HDAC subtype 11", "quoted_text": "(§2) The compounds of the present disclosure were assayed for enzyme inhibitory activity against various subtypes of HDAC enzymes by the FRET method. The various subtypes of HDAC enzymes were obtained either through purification or direct purchase of assay kits.\n(§3) The specific method was as follows: The enzyme was added to a 384-well plate, and a reaction buffer was added to the control well. Serially diluted DMSO sample solutions were added to the reaction wells, and the plate was incubated at room temperature for 15 min. Then a chromogenic agent was added to stop the reaction, and fluorescence was generated. The fluorescence intensity was measured using an EnVision multi-label microplate reader (excitation: 355 nm, emission: 460 nm). The endpoint value was read after the color development reached stability. The inhibition IC50 of the compounds was calculated using GraphPad Prism4 software relative to DMSO."}, "[3]": {"assay": "Stability in liver microsomes", "format": "in vitro ADME", "conditions": "for half-life at 1 µM: 1 µM compound, 37 °C, NADPH regeneration system", "method": "After the 1 µM compound was individually incubated at 37 °C for various durations with […] liver microsomes from humans, monkeys, beagles, rats, or mice in the presence of an NADPH regeneration system, LC-MS-MS was used to analyze the remaining amount of the compound, and T1/2 was calculated. Table 10. Evaluation results of stability of compounds of the present disclosure in human and mouse liver microsomes"}, "[4]": {"tested_on": "Mouse colon cancer CT-26 cells", "conditions": "for Tumor response, number of mice (CR/PR/SD): 6 mice per group; for TGI(%): QD for 14 consecutive days, PO", "quoted_text": "Female BALB/c mice (aged 6 weeks, 18-22 g) were provided by Vital River Laboratory Animal Technology Co., Ltd. (China) and used one week after quarantine and acclimation. All animals were kept in a room at 23±2 °C with a relative humidity of 50±5%, artificial lighting was provided from 08:00 to 20:00 every day, and the air was exchanged 13-18 times per hour.\nMouse colon cancer CT-26 cells were cultured conventionally in 1640 medium containing 10% fetal bovine serum in an incubator at 37 °C with 5% CO2. After being subcultured, the cells were collected when they reached the desired amount. The BALB/c mice were subcutaneously injected with 2 × 10^5 CT-26 cells on the right side to form tumors. After the tumors grew to about 100 mm^3, the animals were randomly grouped for administration. Tumor volumes were measured with a caliper on day 3, day 7, day 10, day 14, day 17, and day 21 after the administration. The ability of the compounds to inhibit tumor growth was evaluated according to the tumor growth inhibition rate (TGI) = 1 - (tumor volume on day 28 in treatment group - tumor volume on day 1 in treatment group)/(tumor volume on day 28 in control group - tumor volume on day 1 in control group). The toxicity of the compounds was evaluated according to the body weight and state of the mice."}, "[5]": {"tested_on": "Jurkat cell", "assay": "Inhibition of cell proliferation (CTG, intracellular ATP)", "format": "cell-based", "conditions": "Homo sapiens, Jurkat, 72 h", "method": "(§1) Jurkat or 293T cells were seeded into a 96-well plate at 3000 cells/well. After overnight adherence culture, the serially diluted compound in DMSO was added. After 72 h, the intracellular ATP level was determined by CTG. The IC50 for the inhibition of cell proliferation by the compounds was calculated compared to the DMSO group. Table 7. Inhibitory activity of compounds of the present disclosure against Jurkat/293T cell proliferation (IC50, µM)"}, "[6]": {"tested_on": "293T cell", "assay": "Inhibition of cell proliferation (CTG, intracellular ATP)", "format": "cell-based", "conditions": "Homo sapiens, HEK-293T, 72 h", "method": "as §1"}, "[7]": {"molecular_target": "HDAC2 (Homo sapiens, UniProt Q92769)", "sequence (Q92769 whole entry, species assumed)": "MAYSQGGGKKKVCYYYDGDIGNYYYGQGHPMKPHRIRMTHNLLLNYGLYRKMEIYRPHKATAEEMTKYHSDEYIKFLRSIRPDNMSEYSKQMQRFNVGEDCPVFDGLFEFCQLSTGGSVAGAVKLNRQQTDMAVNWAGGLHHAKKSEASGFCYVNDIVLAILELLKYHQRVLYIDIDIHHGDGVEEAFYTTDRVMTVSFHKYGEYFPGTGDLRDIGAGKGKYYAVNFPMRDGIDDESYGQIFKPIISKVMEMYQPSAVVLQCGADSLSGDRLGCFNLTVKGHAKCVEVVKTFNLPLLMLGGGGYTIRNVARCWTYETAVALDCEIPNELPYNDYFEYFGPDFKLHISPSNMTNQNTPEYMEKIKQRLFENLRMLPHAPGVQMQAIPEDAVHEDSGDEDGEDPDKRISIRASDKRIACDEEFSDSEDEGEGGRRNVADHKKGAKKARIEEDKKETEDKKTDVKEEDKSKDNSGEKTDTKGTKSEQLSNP", "assay": "HDAC enzyme inhibitory activity, FRET method", "format": "biochemical", "quoted_text": "as §2, §3"}},
  "note": "Like-named read-outs stand apart in the source and are kept apart here.",
  "data": [
    {"smiles": "CS(C)(=O)=Nc1ccc(C(=O)Nc2cc(-c3ccc(F)cc3)ccc2N)cc1", "note": "[Compound 1, N-(4-Amino-4'-fluoro-[1,1'-biphenyl]-3-yl)-4-((dimethyl(oxo)-1^λ-6-sulfaneylidene)amino)benzamide]", "values": [
      {"measurement": "H3K 27 Acetyl lysine Maximum (%)", "setting": "[1]", "result": 200, "unit": "%"},
      {"measurement": "H3K 27 Acetyl lysine Minimum effective concentration", "setting": "[1]", "result": 80, "unit": "nM"},
      {"measurement": "IC50", "setting": "[2]", "result": "> 30000", "unit": "nM"},
      {"measurement": "CLint scaled at 1 µM", "setting": "[3]; Human liver microsomes", "result": 17.4, "unit": "mL/min/kg"},
      {"measurement": "Clliver", "setting": "[3]; Human liver microsomes", "result": 9.45, "unit": "mL/min/kg"},
      {"measurement": "half-life at 1 µM", "setting": "[3]; Human liver microsomes", "result": 1.67, "unit": "h"},
      {"measurement": "CLint scaled at 1 µM", "setting": "[3]; Mouse liver microsomes", "result": 5.55, "unit": "mL/min/kg"},
      {"measurement": "Clliver", "setting": "[3]; Mouse liver microsomes", "result": 5.23, "unit": "mL/min/kg"},
      {"measurement": "half-life at 1 µM", "setting": "[3]; Mouse liver microsomes", "result": 16.4, "unit": "h"},
      {"measurement": "Change in body weight(%)", "setting": "[4]; monotherapy 30 mg/kg QD PO", "result": "1.13+3.79%"},
      {"measurement": "Tumor response, number of mice (CR/PR/SD)", "setting": "[4]; monotherapy 30 mg/kg QD PO", "result": 1, "unit": "PR"},
      {"measurement": "TGI(%)", "setting": "[4]; monotherapy 30 mg/kg", "result": 38.57, "unit": "%"},
      {"measurement": "Change in body weight(%)", "setting": "[4]; monotherapy 90 mg/kg QD PO", "result": "-10.53+7.1%"},
      {"measurement": "Tumor response, number of mice (CR/PR/SD)", "setting": "[4]; monotherapy 90 mg/kg QD PO", "result": 1, "unit": "PR+1SD"},
      {"measurement": "TGI(%)", "setting": "[4]; monotherapy 90 mg/kg", "result": 88.35, "unit": "%"},
      {"measurement": "IC50", "setting": "[5]", "result": 650, "unit": "nM"},
      {"measurement": "IC50", "setting": "[6]", "result": "> 10000", "unit": "nM"},
      {"measurement": "IC50", "setting": "[7]; Table 4, read-out: IC50 HDAC2", "result": "< 500", "unit": "nM"},
      {"measurement": "IC50", "setting": "[7]; Table 5, read-out: IC50 HDAC2", "result": "30 to 300", "unit": "nM"},
      {"measurement": "IC50", "setting": "[7]; Table 6, read-out: IC50 HDAC subtype 2", "result": 141, "unit": "nM"}
    ]}
  ]
}
